Results published in publication PMC9841523 (Journal of Medicinal Chemistry, 2022).
Where two headings read alike, the source gives them in different places.

Assays:
[1] = target: T1, JAK1 domain1 (Homo sapiens, UniProt P23458); experiment: KiNativ kinase panel; assay type: cell-based; conditions: 1 μM; MCF-7 Cells; Activation Loop; QLASALSYLEDKDLVHGNVCTKNLLLAR
T1 construct: MCF7 cells were exposed to; endogenous in cells; host or cells: MCF7

[2] = test system: CDK11, CDK8; experiment: KiNativ kinase panel; assay type: cell-based, human; conditions: 1 μM, MCF-7 Cells, Lys2
[3] = target: T2, MASTL (Homo sapiens, UniProt Q96GX5); experiment: KiNativ kinase panel; assay type: cell-based; conditions: 1 μM, MCF-7 Cells
T2 construct: purchased ActivX Biosciences (KiNativ)
T2 sequence (Q96GX5 1-879): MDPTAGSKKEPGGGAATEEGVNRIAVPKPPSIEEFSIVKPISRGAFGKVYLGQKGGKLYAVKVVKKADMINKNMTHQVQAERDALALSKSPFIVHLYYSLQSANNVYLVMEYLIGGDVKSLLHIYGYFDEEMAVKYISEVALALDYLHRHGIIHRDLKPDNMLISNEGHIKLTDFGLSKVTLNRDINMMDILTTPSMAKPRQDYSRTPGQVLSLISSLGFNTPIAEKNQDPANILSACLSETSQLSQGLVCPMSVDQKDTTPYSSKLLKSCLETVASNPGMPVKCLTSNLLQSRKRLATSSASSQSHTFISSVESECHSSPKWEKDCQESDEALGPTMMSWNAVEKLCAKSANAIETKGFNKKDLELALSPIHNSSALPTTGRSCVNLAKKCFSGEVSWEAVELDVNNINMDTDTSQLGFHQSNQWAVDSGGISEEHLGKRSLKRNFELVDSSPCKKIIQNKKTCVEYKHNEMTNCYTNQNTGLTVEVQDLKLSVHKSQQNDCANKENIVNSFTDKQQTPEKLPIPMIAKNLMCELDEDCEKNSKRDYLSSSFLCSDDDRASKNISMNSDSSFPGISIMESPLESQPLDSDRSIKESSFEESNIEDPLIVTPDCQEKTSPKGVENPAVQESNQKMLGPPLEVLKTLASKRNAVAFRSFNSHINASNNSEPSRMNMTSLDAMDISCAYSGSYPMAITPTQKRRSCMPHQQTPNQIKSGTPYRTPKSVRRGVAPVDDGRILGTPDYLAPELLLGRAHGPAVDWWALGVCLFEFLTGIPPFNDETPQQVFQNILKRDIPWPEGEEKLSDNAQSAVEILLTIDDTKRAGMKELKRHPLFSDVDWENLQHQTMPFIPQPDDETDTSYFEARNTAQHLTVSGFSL

[4] = test system: tumor p4EBP1; experiment: Tumor PD after a single dose in the MCF-7 CDX model; assay type: in vivo, mice; conditions: for effect on tumor p4EBP1 levels: MCF-7 CDX, single dose (38, 40 ip; everolimus 5 mg/kg oral); for MCF-7 tumor PD: dose proportional duration of >80% p4EBP1 inhibition: single ip dose
[5] = target: T3, IRAK4 (Homo sapiens, UniProt Q9NWZ3); experiment: KiNativ kinase panel; assay type: cell-based; conditions: 1 μM, MCF-7 Cells
T3 construct: MCF7 cells were exposed to; endogenous in cells; host or cells: MCF7
T3 sequence (Q9NWZ3 1-460): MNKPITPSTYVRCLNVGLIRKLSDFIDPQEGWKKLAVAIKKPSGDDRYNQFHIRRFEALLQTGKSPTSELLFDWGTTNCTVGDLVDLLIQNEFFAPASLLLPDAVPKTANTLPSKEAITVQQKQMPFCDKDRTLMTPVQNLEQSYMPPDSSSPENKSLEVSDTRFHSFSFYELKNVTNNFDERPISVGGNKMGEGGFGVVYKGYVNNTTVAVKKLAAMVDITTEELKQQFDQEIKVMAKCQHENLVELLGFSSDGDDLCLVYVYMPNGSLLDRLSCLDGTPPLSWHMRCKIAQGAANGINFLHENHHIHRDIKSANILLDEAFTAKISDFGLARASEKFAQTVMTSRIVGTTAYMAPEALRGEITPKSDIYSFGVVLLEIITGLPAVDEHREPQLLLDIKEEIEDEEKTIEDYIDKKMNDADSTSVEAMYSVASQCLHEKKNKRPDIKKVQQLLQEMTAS

[6] = target: T4, TYK2_Domain2 domain2 (Homo sapiens, UniProt P29597); experiment: KiNativ kinase panel; assay type: cell-based; conditions: 1 μM; MCF-7 Cells; Activation Loop; IGDFGLAKAVPEGHEYYR
T4 construct: Briefly, MCF7 cells were exposed to; endogenous in cells; host or cells: MCF7
T4 sequence (P29597 whole entry, the tested form may be a part): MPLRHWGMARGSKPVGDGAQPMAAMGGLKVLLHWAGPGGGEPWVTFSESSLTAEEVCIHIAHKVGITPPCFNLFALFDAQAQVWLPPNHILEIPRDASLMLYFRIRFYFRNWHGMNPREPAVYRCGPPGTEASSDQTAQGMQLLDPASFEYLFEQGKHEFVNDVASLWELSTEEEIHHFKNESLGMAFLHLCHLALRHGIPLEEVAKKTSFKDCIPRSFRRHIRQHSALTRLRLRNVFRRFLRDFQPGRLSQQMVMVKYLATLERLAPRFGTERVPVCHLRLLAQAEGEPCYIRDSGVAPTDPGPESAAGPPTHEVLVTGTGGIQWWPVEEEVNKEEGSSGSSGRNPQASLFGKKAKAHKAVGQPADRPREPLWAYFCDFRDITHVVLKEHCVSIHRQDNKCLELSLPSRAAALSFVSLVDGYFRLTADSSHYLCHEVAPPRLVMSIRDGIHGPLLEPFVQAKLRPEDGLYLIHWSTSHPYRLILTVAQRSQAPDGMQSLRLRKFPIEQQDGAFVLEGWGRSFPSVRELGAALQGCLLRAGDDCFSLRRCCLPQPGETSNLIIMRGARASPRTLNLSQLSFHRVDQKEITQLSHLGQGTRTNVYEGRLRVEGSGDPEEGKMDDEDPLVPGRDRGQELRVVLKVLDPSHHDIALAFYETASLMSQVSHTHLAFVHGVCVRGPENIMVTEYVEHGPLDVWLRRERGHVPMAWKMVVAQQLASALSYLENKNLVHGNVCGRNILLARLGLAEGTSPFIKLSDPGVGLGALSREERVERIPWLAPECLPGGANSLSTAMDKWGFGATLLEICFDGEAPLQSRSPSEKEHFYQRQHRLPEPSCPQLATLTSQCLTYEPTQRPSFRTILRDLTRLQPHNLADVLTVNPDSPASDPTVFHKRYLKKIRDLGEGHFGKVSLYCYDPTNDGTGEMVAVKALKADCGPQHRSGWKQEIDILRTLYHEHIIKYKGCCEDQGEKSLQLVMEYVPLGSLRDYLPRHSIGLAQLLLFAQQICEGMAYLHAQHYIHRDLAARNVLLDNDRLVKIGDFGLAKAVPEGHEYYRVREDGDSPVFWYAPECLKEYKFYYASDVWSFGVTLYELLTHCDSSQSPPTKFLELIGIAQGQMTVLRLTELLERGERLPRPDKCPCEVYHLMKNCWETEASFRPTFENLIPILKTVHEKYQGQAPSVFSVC

[7] = test system: MER, TYRO3; experiment: KiNativ kinase panel; assay type: cell-based, human; conditions: 1 μM; MCF-7 Cells; Activation Loop; KIYSGDYYR
[8] = target: T5, MST3 (Homo sapiens, UniProt Q9Y6E0); experiment: KiNativ kinase panel; assay type: cell-based; conditions: 1 μM; MCF-7 Cells; Lys2; DIKAANVLLSEHGEVK
T5 construct: purchased ActivX Biosciences (KiNativ)
T5 sequence (Q9Y6E0 whole entry): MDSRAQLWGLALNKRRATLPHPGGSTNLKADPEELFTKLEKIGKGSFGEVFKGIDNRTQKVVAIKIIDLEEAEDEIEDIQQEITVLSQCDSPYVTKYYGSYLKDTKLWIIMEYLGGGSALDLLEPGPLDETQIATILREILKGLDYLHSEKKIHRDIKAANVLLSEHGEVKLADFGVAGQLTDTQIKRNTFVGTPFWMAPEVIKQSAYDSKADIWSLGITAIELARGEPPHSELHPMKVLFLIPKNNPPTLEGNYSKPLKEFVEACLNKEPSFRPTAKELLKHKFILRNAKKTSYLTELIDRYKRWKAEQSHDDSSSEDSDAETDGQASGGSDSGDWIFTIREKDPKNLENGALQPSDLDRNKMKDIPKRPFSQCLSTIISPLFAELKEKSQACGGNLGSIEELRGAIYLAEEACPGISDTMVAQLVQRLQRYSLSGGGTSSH

[9] = target: T6, DNA-PK (Homo sapiens, UniProt P78527); experiment: Nanosyn Lipid Kinase screen; assay type: biochemical
T6 construct: purchased Promega V4106
Protocol: complex formation) controls.
Nanosyn Lipid Kinase screen. Biochemical inhibition of lipid and related protein kinases was determined by Nanosyn (Santa Clara, CA). […]
ADP formation using ADP-Glo (Promega). Kinase reactions were assembled in 384 well plates in a total volume of 20 µL as follows. […]
Compounds were serially pre-diluted in DMSO and added to the protein samples by acoustic dispensing (200 nL, Labcyte Echo). Concentration of DMSO was equalized to 1% in all samples. All test compounds were tested at 12 concentrations, 3x dilution intervals. The control samples (0%-inhibition in the absence of inhibitor, DMSO only) and 100%-inhibition (in the absence of enzyme) were assembled in replicates of four and were used to calculate %-inhibition in the presence of compounds. […]

[10] = test system: PI4KA, PI4KAP2; experiment: KiNativ kinase panel; assay type: cell-based, human; conditions: 1 μM, MCF-7 Cells, ATP
[11] = target: T7, ULK1 (Homo sapiens, UniProt O75385); experiment: KiNativ kinase panel; assay type: cell-based; conditions: 1 μM; MCF-7 Cells; Lys2; DLKPQNILLSNPAGR
T7 construct: Briefly, MCF7 cells were exposed to; endogenous in cells; host or cells: MCF7
T7 sequence (O75385 whole entry): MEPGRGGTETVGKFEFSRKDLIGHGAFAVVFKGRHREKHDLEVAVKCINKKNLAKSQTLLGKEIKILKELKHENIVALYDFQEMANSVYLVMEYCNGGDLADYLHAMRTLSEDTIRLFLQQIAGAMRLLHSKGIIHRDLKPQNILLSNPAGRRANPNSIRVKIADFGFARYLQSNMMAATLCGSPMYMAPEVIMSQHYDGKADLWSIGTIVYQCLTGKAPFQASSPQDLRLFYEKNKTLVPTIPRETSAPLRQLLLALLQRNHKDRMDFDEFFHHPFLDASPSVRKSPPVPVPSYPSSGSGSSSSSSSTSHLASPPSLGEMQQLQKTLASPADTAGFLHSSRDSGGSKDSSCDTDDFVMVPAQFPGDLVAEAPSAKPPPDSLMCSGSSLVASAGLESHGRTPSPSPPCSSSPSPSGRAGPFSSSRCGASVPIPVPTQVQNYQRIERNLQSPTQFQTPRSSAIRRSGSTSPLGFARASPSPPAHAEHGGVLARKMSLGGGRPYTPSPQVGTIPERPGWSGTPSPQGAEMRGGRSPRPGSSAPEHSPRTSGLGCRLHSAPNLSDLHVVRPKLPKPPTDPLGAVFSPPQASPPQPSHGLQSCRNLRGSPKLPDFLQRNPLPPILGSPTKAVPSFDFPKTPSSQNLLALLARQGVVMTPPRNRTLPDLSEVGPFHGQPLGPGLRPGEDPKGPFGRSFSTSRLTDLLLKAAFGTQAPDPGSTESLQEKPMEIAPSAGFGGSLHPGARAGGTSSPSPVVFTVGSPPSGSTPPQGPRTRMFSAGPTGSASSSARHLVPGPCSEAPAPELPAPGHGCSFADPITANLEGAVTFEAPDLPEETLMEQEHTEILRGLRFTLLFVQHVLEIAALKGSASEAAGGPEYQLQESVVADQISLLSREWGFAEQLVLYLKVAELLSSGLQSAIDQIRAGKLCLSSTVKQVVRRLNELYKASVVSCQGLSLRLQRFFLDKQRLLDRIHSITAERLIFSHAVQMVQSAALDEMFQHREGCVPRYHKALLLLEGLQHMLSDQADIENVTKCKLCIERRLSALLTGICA

[12] = test system: Wnk1, Wnk2; experiment: KiNativ kinase panel; assay type: cell-based, human; conditions: 1 μM; MCF-7 Cells; ATP Loop; GSFKTVYK
[13] = target: T8, MET (Homo sapiens, UniProt P08581); experiment: KiNativ kinase panel; assay type: cell-based; conditions: 1 μM; MCF-7 Cells; Activation Loop; TGAKLPVK
T8 construct: purchased ActivX Biosciences (KiNativ)
T8 sequence (P08581 25-1390): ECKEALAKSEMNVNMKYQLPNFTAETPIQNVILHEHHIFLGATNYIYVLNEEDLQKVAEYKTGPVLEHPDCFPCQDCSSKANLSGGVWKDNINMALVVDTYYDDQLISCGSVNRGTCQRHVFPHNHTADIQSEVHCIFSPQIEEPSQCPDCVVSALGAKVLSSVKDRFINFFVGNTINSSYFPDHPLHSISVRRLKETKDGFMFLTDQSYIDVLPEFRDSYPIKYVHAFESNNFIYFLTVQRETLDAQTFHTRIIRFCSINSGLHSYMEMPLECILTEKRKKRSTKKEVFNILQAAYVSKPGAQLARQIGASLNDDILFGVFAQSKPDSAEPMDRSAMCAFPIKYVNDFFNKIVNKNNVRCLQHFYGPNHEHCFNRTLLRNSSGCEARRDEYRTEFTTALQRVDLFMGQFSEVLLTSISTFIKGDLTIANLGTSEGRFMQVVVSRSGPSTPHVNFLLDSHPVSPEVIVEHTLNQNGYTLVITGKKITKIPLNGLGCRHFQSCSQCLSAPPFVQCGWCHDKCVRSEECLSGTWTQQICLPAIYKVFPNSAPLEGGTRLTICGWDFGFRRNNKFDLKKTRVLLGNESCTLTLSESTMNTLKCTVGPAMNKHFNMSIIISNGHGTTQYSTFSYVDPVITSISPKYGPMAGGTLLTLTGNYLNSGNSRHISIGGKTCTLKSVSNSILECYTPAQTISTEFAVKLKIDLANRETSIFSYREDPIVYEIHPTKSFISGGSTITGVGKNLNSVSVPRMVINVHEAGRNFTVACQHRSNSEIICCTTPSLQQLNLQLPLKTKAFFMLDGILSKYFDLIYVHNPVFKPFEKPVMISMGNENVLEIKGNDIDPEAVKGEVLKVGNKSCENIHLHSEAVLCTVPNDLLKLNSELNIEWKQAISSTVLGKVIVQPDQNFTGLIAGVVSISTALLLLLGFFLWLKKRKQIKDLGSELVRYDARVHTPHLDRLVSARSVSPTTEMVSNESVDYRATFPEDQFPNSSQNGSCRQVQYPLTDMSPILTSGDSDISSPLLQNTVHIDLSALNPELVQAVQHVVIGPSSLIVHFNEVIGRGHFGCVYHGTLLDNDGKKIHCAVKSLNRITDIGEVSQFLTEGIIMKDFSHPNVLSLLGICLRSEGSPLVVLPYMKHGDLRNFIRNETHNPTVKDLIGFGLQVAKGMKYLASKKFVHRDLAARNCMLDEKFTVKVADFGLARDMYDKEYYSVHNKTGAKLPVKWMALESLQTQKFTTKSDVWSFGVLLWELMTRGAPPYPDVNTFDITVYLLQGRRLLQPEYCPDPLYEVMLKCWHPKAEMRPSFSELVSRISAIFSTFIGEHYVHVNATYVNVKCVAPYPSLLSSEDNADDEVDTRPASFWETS

[14] = test system: CK1g1, CK1g2, CK1g3; experiment: KiNativ kinase panel; assay type: cell-based, human; conditions: 1 μM, MCF-7 Cells, ATP Loop
[15] = target: T9, EphB2 (Homo sapiens, UniProt P29323); experiment: KiNativ kinase panel; assay type: cell-based; conditions: 1 μM; MCF-7 Cells; Activation Loop; FLEDDTSDPTYTSALGGKIPIR
T9 construct: MCF7 cells were exposed to; endogenous in cells; host or cells: MCF7
T9 sequence (P29323 19-1055): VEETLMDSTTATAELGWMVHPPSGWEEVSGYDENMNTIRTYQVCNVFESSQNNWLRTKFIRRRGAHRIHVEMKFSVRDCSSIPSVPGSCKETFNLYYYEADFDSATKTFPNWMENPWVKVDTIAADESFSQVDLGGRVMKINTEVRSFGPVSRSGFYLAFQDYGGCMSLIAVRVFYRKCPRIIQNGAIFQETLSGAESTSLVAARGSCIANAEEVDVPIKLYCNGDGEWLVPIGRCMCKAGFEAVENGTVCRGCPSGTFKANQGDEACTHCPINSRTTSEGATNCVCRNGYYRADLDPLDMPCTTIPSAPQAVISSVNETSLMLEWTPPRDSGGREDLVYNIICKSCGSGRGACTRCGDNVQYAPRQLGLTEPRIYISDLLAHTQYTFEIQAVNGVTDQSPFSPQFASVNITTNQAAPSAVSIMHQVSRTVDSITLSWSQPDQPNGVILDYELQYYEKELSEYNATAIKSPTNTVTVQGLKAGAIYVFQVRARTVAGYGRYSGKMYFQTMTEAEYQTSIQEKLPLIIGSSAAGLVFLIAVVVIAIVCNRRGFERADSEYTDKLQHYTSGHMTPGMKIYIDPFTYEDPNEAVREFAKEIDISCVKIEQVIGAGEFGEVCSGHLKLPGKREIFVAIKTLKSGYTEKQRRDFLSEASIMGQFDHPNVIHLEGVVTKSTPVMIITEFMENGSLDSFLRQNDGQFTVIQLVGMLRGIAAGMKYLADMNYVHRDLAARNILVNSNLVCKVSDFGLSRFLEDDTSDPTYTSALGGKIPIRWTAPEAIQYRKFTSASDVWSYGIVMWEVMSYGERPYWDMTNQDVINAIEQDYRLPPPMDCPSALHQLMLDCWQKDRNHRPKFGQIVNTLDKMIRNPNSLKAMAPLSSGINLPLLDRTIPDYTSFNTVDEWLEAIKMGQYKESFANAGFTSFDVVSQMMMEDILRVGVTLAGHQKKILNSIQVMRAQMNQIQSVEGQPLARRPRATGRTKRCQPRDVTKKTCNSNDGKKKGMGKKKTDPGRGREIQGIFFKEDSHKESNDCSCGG

Row | SMILES | KiNativ Kinase Panel Data [1] | KiNativ Kinase Panel Data ([3]; Lys1, LYAVKVVK) | effect on tumor p4EBP1 levels [4] | MCF-7 tumor PD: dose proportional duration of >80% p4EBP1 inhibition [4] [h] | KiNativ Kinase Panel Data ([5]; Lys1, GYVNNTTVAVKK) | KiNativ Kinase Panel Data ([5]; Lys2, DIKSANILLDEAFTAK) | KiNativ Kinase Panel Data [6] | KiNativ Kinase Panel Data [7] | KiNativ Kinase Panel Data [8] | KiNativ Kinase Panel Data [11] | KiNativ Kinase Panel Data [12] | KiNativ Kinase Panel Data [13] | KiNativ Kinase Panel Data [15] | other results
1 | CO[C@H]1C[C@@H]2CC[C@@H](C)[C@@](O)(O2)C(=O)C(=O)N2CCCC[C@H]2C(=O)O[C@H]([C@H](C)C[C@@H]2CC[C@@H](OC(=O)NCCOCCOCCOCCOCCOCCOCCOCCOCCC(=O)NCCS(=O)(=O)c3ccc(C(=O)N4CCOc5ccc(-c6ccc(N)nc6)cc5C4)c(C)c3F)[C@H](OC)C2)C[C@@H](O)[C@H](C)/C=C(\C)[C@@H](O)[C@@H](OC)C(=O)[C@H](C)C[C@H](C)/C=C/C=C/C=C/1C [compound 40] | -1.7 | -10.0 | dose-dependent, robust, and long-lasting inhibition | 24 to 48 | -35.0 | -35.4 | 1.9 | 7.1 | 11.0 | -15.4 | -3.7 | 6.3 | 1.3 | KiNativ Kinase Panel Data ([2]; DLKPANILVMGEGPER): -19.1; IC50 ([9]; Nanosyn, with FKBP12): > 1000 nM; KiNativ Kinase Panel Data ([10]; SGTPMQSAAKAPYLAK): -5.7; KiNativ Kinase Panel Data ([14]; KIGCGNFGELR): -7.8
2 | CO[C@H]1C[C@@H]2CC[C@@H](C)[C@@](O)(O2)C(=O)C(=O)N2CCCC[C@H]2C(=O)O[C@H]([C@H](C)C[C@@H]2CC[C@@H](OC(=O)NCCOCCOCCOCCOCCOCCOCCOCCOCCC(=O)N3CCc4cc(Cn5nc(-c6ccc7oc(N)nc7c6)c6c(N)ncnc65)ccc4C3)[C@H](OC)C2)C[C@@H](O)[C@H](C)/C=C(\C)[C@@H](O)[C@@H](OC)C(=O)[C@H](C)C[C@H](C)/C=C/C=C/C=C/1C [compound 38] | 0.8 | 17.4 | dose-dependent, prolonged, and profound inhibition | 24 to 48 | -7.0 | -19.3 | 15.6 | -0.7 | 22.2 | -11.7 | 13.6 | 3.9 | 26.5 | KiNativ Kinase Panel Data ([2]; […]): -39.0; KiNativ Kinase Panel Data ([3]; ATP Loop, GAFGKVYLGQK): 4.3; IC50 [9]: > 1000 nM; KiNativ Kinase Panel Data ([10]; […]): -38.9; KiNativ Kinase Panel Data ([14]; […]): 8.9
